Assay results reported in patent US20260317314A1, “NITROGEN-CONTAINING HETEROCYCLIC COMPOUND AND USE THEREOF” (JIANGSU DEYUAN PHARMACEUTICAL CO.,LTD., priority 2023, published 2026).

Experiments:
[1] = Permeability test in MDR1-MDCKII monolayer cell model; type: in vitro ADME; conditions: dog; for efflux ratio at 2.5 h, 2 µM: MDCK-MDR1, pH 7.4, ER=Papp(BA)/Papp(AB); for Papp A→B at 2.5 h, 2 µM: MDCK-MDR1, pH 7.4, pH 7.40, 2.5 hours, 37±1° C., read-out: Apparent permeability coefficient (Papp (AB))
Method: Experimental objective: The permeability and efflux ratio of the compound of the present disclosure were determined using the MDR1-MDCKII monolayer cell model to assess its membrane permeability and potential for P-gp-mediated efflux transport.
Experimental protocol: MDR1-MDCKII cells (obtained from the Netherlands Cancer Institute) were seeded in 96-well plates (obtained from Corning) at a cell density of 3.33×10^5 cells/mL and cultured for 4 to 7 days to form confluent cell monolayers. Hank's balanced salt solution containing 10 mM HEPES (pH 7.40) was used as the transport buffer. The test compound was evaluated for bidirectional transport at a concentration of 2 μM, with the DMSO concentration in the incubation system maintained below 1%. After adding the samples, the cell plate was incubated at 37±1° C., 5% CO2, and saturated humidity for 2.5 hours. All samples were quantitatively analyzed using the LC-MS/MS method. The apparent permeability coefficient (Papp, cm/s) and efflux ratio (ER) were calculated using the following formula. Apparent permeability coefficient (Papp, cm/s) was calculated using the following formula: Papp=(dCr/dt)×Vr/(A×C0). Herein, dCr/dt represents the cumulative concentration of the compound at the receiving end per unit time (μM/s); Vr is the volume of the solution at the receiving end (with solution volumes at the apical and basolateral ends being 0.075 mL and 0.250 mL, respectively); A is the relative surface area of the cell monolayer (0.143 cm^2); C0 is the initial concentration of the test substance at the dosing end (μM) or the peak area ratio of the reference substance. The efflux ratio was calculated using the following formula: ER=Papp(BA)/Papp(AB).

[2] = In vitro liver microsome metabolic stability study; type: in vitro ADME; conditions: human liver microsomes 0.5 mg/mL, compound 1 μM, 37° C., up to 60 minutes; read-out: Intrinsic hepatic clearance CLint(liver)
Method: Stock solution: 10 mM in DMSO.
Only 54 μL of microsomal working solution, 6 μL of NADPH regeneration system working solution, and 180 μL of stop solution were added to the blank plate.
LC-MS/MS analysis was performed.

[3] = Plasma protein binding rate test, SD rat (equilibrium dialysis); type: in vitro ADME; conditions: 37° C., read-out: Plasma protein binding rate (%) in SD rats (converted)
Excerpt: (§1) The sample was thoroughly mixed.

[4] = Plasma protein binding rate test, cynomolgus monkey (equilibrium dialysis); type: in vitro ADME; conditions: 37° C., read-out: Plasma protein binding rate (%) in cynomolgus monkeys (converted)
Excerpt: as §1

[5] = Plasma protein binding rate test, human (equilibrium dialysis); type: in vitro ADME; conditions: 37° C.
Excerpt: as §1

CYP1A2 = target: T1, CYP1A2 (Homo sapiens, UniProt P05177); assay: Human liver microsome CYP inhibition assay, CYP1A2; type: in vitro ADME; conditions: role: inhibitor; human liver microsomes, probe substrate; read-out: CYP1A2 half maximal inhibitory concentration IC50
T1 construct: Mixed human liver microsomes (HLM) were purchased from Corning Inc; tissue Corning Inc; host or cells: mixed human liver microsomes (HLM)
T1 sequence (P05177 1-516): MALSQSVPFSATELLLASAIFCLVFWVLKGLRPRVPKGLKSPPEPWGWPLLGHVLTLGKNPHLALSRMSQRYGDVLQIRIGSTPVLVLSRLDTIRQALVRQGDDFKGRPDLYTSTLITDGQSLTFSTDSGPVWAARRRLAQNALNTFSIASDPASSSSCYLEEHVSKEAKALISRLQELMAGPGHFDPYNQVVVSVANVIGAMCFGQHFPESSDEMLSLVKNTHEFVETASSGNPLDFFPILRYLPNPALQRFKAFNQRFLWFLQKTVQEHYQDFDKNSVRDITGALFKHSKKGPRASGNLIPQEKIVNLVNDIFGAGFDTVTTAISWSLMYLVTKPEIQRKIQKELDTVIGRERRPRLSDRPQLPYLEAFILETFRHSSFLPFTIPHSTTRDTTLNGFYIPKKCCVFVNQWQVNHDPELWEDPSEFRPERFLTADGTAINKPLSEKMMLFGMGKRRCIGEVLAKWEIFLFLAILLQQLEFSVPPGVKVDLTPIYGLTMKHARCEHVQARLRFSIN
Method: (§2) Experimental objective: To evaluate the inhibitory activity of the test substance on human liver microsomal cytochrome P450 isoenzymes (CYP1A2, CYP2C9, CYP2C19, CYP2D6, CYP3A4) using a 5-in-1 probe substrate for CYP isoenzymes.
(§3) Mixed human liver microsomes (HLM) were purchased from Corning Inc. (Steuben, New York, USA) and stored at temperatures below −70° C. prior to use.
(§4) The working solution of the test substance, which had been diluted to a series of concentrations, was added to an incubation system containing human liver microsomes, probe substrates, and auxiliary factors of the circulatory system. A control containing solvent but no test substance served as an enzyme activity control (100%). The concentration of metabolites produced from probe substrates in the samples was determined using Liquid Chromatography-Tandem Mass Spectrometry (LC-MS/MS) method. Non-linear regression analysis of the average percentage activity of the test substance against its concentration was conducted using SigmaPlot (V.11). The IC50 values were calculated using a three-parameter or four-parameter inverse log equation.

CYP2C9 = target: T2, CYP2C9 (Homo sapiens, UniProt P11712); assay: Human liver microsome CYP inhibition assay, CYP2C9; type: in vitro ADME; conditions: role: inhibitor; human liver microsomes, probe substrate; read-out: CYP2C9 half maximal inhibitory concentration IC50
T2 construct: Mixed human liver microsomes (HLM) were purchased from Corning Inc; tissue Corning Inc; host or cells: mixed human liver microsomes (HLM)
T2 sequence (P11712 whole entry): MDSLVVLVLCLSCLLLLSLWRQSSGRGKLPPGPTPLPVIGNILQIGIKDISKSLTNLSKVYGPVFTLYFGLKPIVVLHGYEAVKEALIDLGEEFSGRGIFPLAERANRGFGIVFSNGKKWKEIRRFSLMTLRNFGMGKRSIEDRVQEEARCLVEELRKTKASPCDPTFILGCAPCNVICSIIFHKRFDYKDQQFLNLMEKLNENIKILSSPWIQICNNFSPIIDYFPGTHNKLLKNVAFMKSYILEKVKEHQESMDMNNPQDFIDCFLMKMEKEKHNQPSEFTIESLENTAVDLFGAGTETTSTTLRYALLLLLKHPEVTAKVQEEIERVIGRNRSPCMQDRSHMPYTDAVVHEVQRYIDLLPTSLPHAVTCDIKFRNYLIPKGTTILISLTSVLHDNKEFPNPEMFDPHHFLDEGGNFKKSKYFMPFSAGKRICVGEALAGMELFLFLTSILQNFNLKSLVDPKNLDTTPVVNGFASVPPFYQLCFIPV
Method: as §2, §3, §4

CYP2C19 = target: T3, CYP2C19 (Homo sapiens, UniProt P33261); assay: Human liver microsome CYP inhibition assay, CYP2C19; type: in vitro ADME; conditions: role: inhibitor; human liver microsomes, probe substrate; read-out: CYP2C19 half maximal inhibitory concentration IC50
T3 construct: Mixed human liver microsomes (HLM) were purchased from Corning Inc; tissue Corning Inc; host or cells: mixed human liver microsomes (HLM)
T3 sequence (P33261 whole entry): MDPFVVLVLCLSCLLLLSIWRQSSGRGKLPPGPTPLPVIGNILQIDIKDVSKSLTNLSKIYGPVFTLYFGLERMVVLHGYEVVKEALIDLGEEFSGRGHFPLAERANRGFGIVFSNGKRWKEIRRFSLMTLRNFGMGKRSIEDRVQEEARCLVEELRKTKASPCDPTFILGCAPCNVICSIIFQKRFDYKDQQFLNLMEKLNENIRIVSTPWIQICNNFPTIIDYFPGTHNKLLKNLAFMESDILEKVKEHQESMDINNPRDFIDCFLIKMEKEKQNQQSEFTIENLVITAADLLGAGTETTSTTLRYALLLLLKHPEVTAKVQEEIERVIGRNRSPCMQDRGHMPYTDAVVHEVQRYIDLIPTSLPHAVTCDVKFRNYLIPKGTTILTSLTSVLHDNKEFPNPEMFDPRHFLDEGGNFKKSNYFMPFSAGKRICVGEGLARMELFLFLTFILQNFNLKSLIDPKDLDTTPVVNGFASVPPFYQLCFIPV
Method: as §2, §3, §4

CYP2D6 = target: T4, CYP2D6 (Homo sapiens, UniProt P10635); assay: Human liver microsome CYP inhibition assay, CYP2D6; type: in vitro ADME; conditions: role: inhibitor; human liver microsomes, probe substrate; read-out: CYP2D6 half maximal inhibitory concentration IC50
T4 construct: Mixed human liver microsomes (HLM) were purchased from Corning Inc; tissue Corning Inc; host or cells: mixed human liver microsomes (HLM)
T4 sequence (P10635 whole entry): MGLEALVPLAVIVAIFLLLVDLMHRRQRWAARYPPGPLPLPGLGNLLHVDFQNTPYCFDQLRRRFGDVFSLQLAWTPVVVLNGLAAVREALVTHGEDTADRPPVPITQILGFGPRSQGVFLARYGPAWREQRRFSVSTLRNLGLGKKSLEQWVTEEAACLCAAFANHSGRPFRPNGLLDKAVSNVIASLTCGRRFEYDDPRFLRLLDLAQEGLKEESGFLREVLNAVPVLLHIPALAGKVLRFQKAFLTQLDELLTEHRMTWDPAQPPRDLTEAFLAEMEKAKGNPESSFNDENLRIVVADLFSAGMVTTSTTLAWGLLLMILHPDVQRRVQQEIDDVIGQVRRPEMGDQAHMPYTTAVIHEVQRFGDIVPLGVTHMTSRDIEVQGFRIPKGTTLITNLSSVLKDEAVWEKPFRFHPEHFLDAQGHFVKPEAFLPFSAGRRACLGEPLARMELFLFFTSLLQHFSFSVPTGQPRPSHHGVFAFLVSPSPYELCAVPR
Method: as §2, §3, §4

CYP3A4 = target: T5, CYP3A4 (Homo sapiens, UniProt P08684); assay: Human liver microsome CYP inhibition assay, CYP3A4; type: in vitro ADME; conditions: role: inhibitor; human liver microsomes, probe substrate; read-out: CYP3A4 half maximal inhibitory concentration IC50
T5 construct: Mixed human liver microsomes (HLM) were purchased from Corning Inc; tissue Corning Inc; host or cells: mixed human liver microsomes (HLM)
T5 sequence (P08684 whole entry): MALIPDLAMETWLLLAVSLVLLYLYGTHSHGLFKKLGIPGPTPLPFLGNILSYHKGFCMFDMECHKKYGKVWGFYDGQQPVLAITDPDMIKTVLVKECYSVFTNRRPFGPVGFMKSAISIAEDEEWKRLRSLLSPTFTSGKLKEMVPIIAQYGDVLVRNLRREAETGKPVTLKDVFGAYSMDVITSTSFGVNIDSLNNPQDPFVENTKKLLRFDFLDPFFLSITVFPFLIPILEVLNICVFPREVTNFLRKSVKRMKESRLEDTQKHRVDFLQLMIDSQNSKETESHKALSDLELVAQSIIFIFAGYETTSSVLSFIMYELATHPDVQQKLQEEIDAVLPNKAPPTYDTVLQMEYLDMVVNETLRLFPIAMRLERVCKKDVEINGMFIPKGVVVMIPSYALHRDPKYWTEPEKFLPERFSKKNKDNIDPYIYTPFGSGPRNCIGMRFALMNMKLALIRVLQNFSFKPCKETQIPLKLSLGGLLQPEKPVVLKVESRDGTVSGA
Method: as §2, §3, §4

human CYP11B2 = target: T6, human CYP11B2 (Homo sapiens, UniProt P19099); assay: In vitro activity assay of monoclonal cells overexpressing human CYP11B2; type: cell-based; conditions: G402 cells overexpressing human CYP11B2; substrate 11-deoxycorticosterone; 16 hours; aldosterone by LCMS/MS
T6 construct: expressed in transfected cells; host or cells: human renal leiomyoma G402 cell line (monoclonal cells overexpressing human CYP11B2)
T6 sequence (P19099 25-503): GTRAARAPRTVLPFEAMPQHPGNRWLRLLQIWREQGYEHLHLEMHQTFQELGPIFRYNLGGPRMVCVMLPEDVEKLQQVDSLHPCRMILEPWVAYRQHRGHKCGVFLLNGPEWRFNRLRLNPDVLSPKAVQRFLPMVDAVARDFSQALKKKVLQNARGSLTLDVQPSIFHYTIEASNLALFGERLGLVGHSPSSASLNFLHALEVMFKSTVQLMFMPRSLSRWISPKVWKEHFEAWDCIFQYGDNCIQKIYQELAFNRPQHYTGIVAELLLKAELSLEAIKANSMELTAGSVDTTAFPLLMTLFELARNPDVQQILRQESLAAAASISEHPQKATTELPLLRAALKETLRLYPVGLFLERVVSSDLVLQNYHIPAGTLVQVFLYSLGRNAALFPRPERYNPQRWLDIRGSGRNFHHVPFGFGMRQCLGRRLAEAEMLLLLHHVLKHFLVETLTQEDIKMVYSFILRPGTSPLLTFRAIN
Method: The human renal leiomyoma G402 cell line overexpressing human CYP11B2 was selected to serve as a compound activity screening system.
• 2) Compound details: The test compound was prepared as a 10 μM working concentration using DMSO.
Day 1: Cells were digested, and human renal leiomyoma G402 cells overexpressing human CYP11B2 were resuspended to 1×10^5 cells/mL, with 100 μL seeded into a 96-well plate.
Day 2: The medium was replaced with DMEM/F12 containing 2.5% charcoal-stripped fetal bovine serum; test compounds were added: 5 μL of test compound was added to the cell culture medium to achieve final concentrations of 10000, 2500, 625, 156.25, 39.06, 9.77, 2.44, 0.61, 0.15, and 0 nM (with a DMSO content of 0.1%).
After one hour, the substrate was added: 30 mM 11-deoxycorticosterone was diluted 1500-fold with culture medium, and 5 μL was dispensed per well to achieve a final concentration of […], followed by incubation for 16 hours.
Day 3: The cell supernatant was collected and added to 200 μL of a methanol solution containing internal standards (internal standards: 35 ng/mL ketoprofen or 7.5 ng/mL carbamazepine or 5 ng/mL diphenhydramine or 10 ng/mL tolbutamide). The mixture was vortexed and centrifuged (4000×g, 4° C., 5 minutes). Then, 100 μL of the supernatant was taken and mixed with 100 μL of pure water. The mixture was centrifuged (4000 g, 4° C., 15 min), and the supernatant was analyzed by ESI-LCMS/MS. • 4) Data analysis:
Ratio=Aldosterone peak area/Internal standard peak area
Control activity %=(Ratio test compound/Ratio DMSO)×100%
“Ratio test compound” represents the Ratio values at different concentrations of the test compound.
“Ratio DMSO” represents the Ratio value without the addition of the test compound. • X=Log (compound concentration) • Y=Control activity %
(§5) The IC50 of the test compound was determined by fitting to a nonlinear regression equation using XLfit 5.5.0.

human CYP11B1 = target: T7, human CYP11B1 (Homo sapiens, UniProt P15538); assay: In vitro activity assay of monoclonal cells overexpressing human CYP11B1; type: cell-based; conditions: G402 cells overexpressing human CYP11B1; substrate 11-deoxycortisol 1 μM; 16 hours
T7 construct: expressed in transfected cells; host or cells: human renal leiomyoma G402 cell line (monoclonal cells overexpressing human CYP11B1)
T7 sequence (P15538 25-503): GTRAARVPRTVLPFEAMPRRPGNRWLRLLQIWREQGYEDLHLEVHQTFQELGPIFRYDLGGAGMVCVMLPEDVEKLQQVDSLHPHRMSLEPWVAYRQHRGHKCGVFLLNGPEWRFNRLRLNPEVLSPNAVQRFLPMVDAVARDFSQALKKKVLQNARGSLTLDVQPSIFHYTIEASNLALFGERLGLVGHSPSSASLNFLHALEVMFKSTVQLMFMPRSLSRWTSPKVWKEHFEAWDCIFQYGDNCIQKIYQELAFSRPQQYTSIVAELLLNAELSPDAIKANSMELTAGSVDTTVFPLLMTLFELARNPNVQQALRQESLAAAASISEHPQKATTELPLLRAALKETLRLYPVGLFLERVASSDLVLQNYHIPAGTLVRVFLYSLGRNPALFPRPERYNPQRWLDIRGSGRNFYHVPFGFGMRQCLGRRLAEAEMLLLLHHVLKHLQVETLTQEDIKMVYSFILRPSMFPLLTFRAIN
Method: The human renal leiomyoma G402 cell line overexpressing human CYP11B1 was selected to serve as a compound selectivity screening system. Details are as follows: • 1) The cells, reagents, and instrument information were consistent with Experimental Example 1 (activity of monoclonal cells overexpressing human CYP11B2). • 2) Compound details: The test compound was prepared as a […] working concentration using DMSO. • 3) Experimental procedure
Day 1: Cells were digested, and human renal leiomyoma G402 cells overexpressing CYP11B1 were resuspended to 1×10^5 cells/mL, with […] seeded into a 96-well plate.
Day 2: The medium was replaced with DMEM/F12 containing 2.5% charcoal-stripped fetal bovine serum.
After one hour, the substrate was added: 30 mM 11-deoxycortisol was diluted 1500-fold with culture medium, and 5 μL was dispensed per well to achieve a final concentration of 1 μM, followed by incubation for 16 hours.
Day 3: The cell supernatant was collected and added to 200 μL of a methanol solution containing internal standards (internal standards: 35 ng/mL ketoprofen or 7.5 ng/mL carbamazepine or 5 ng/mL diphenhydramine or 10 ng/mL tolbutamide). […] The mixture was centrifuged (4000 g, 4° C., 15 min), and the supernatant was analyzed by ESI-LCMS/MS. • 4) Data analysis: […]
as §5

[6] = In vivo pharmacokinetics study in rats; design: species or system SD rat; conditions: rat, plasma, male SD rats, oral 2 mg/kg

SMILES	efflux ratio at 2.5 h, 2 µM [1]	Papp A→B at 2.5 h, 2 µM [1] [×10⁻⁶ cm/s]	CLint scaled at 1 µM [2] [mL/min/kg]	fraction unbound at 4 h [3]	fraction unbound at 4 h [4]	fraction unbound at 4 h [5]	IC50 (CYP1A2) [µM]	IC50 (CYP2C9) [µM]	IC50 (CYP2C19) [µM]	IC50 (CYP2D6) [µM]	IC50 (CYP3A4) [µM]	IC50 (human CYP11B2) [µM]	IC50 (human CYP11B1) [µM]	bioavailability [6] [%]	half-life [6] [h]	Cmax [6] [µM]	AUC(0-t) at 24 h ([6]; read-out: AUC0-24 h) [µM·h]
CCC(=O)NC1CCCc2c(-c3ccc4c(c3)OCC(=O)N4C)cncc21 (single isomer, unassigned) [Compound 011]	0.89	24.3	< 8.6	0.139	0.245	0.245	> 50	> 50	> 50	> 50	> 50						
CCC(=O)N[C@@H]1CCCc2c(-c3cnc4c(ccc(=O)n4C)c3)cncc21 (single isomer, unassigned) [Compound 022]												0.0487	6.89				
CCC(=O)N[C@@H]1CCCc2c(-c3ccc4c(c3)c(C)cc(=O)n4C)cncc21 (single isomer, unassigned) [Compound 027]												0.0627					
CCC(=O)NC1CCOc2c(-c3cc4c(s3)N(C)C(=O)CC4)cncc21 (single isomer, unassigned) [Compound 046]	1.17	18	< 8.6		0.304	0.166	> 50	> 50	> 50	> 50	> 50			71	3.23	7.86	36.6
